Assay results: US8796289B2 (AbbVie Inc., priority 2011, dated 2014)

Molecular target: GST-tagged-Wee1 kinase (Homo sapiens, UniProt P30291)
Assay: Wee1 time-resolved fluorescence equilibrium binding assay (displacement of Oregon Green-labeled ATP-competitive kinase probe)
Method: Wee1 kinase was assayed using a time-resolved fluorescence equilibrium binding assay monitoring displacement of a rapidly reversible Oregon Green-labeled ATP-competitive kinase probe (N-(2-(2-(2-(4-(4-(5-chloro-4-(2-(1-hydroxycyclobutyl)thiazol-5-yl)-1H-pyrrolo[2,3-b]pyridin-2-yl)phenyl)piperazin-1-yl)ethoxy)ethoxy)ethyl)-2′,7′-difluoro-3′,6′-dihydroxy-3-oxo-3H-spiro[isobenzofuran-1,9′-xanthene]-5-carboxamide) by competitive Wee1 inhibitors.

Chain of GST-tagged-Wee1 kinase (P30291 whole entry): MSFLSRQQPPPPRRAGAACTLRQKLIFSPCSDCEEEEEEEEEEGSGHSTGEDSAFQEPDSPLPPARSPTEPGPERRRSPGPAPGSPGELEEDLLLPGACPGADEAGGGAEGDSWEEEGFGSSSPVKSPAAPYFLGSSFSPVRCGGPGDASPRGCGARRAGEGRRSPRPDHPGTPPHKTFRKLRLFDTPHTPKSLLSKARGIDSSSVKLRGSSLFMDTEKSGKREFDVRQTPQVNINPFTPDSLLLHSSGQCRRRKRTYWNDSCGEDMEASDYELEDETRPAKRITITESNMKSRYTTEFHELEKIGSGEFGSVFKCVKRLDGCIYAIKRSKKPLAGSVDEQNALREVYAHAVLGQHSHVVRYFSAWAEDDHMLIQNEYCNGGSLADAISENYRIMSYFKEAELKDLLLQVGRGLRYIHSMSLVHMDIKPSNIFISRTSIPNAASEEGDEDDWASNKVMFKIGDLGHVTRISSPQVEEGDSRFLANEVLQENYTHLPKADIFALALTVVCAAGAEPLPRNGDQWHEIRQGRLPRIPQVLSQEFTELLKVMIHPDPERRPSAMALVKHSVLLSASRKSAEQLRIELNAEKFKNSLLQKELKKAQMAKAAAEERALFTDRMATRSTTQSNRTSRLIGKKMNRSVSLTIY

Ki [nM]	SMILES
1	CN1CCN(c2ccc(Nc3ncc4c(=O)n(-c5c(Cl)cccc5Cl)nc(-c5ccccc5F)c4n3)cc2)CC1 [Example 45, 6-(2,6-dichlorophenyl)-8-(2-fluorophenyl)-2-{[4-(4-methylpiperazin-1-yl)phenyl]amino}pyrimido[4,5-d]pyridazin-5(6H)-one]
0.3	CN1CCN(c2ccc(Nc3ncc4c(=O)n(-c5c(Cl)cccc5Cl)nc(-c5ccccc5)c4n3)cc2)CC1 [Example 46, 6-(2,6-dichlorophenyl)-2-{[4-(4-methylpiperazin-1-yl)phenyl]amino}-8-phenylpyrimido[4,5-d]pyridazin-5(6H)-one]
240	C=CCn1nc(-c2ccc(Cl)cc2Cl)c2nc(Nc3ccc(N4CCN(C)CC4)cc3)ncc2c1=O [Example 47, 6-allyl-8-(2,4-dichlorophenyl)-2-{[4-(4-methylpiperazin-1-yl)phenyl]amino}pyrimido[4,5-d]pyridazin-5(6H)-one]
9	Cc1ccccc1-n1nc(C2CCCC2)c2nc(Nc3ccc(N4CCN(C)CC4)cc3)ncc2c1=O [Example 49, 8-cyclopentyl-6-(2-methylphenyl)-2-{[4-(4-methylpiperazin-1-yl)phenyl]amino}pyrimido[4,5-d]pyridazin-5(6H)-one]
5	Cc1cccc(-c2nn(-c3ccccc3)c(=O)c3cnc(Nc4ccc(N5CCN(C)CC5)cc4)nc23)c1 [Example 50, 8-(3-methylphenyl)-2-{[4-(4-methylpiperazin-1-yl)phenyl]amino}-6-phenylpyrimido[4,5-d]pyridazin-5(6H)-one]
0.4	Cc1cccc(-c2nn(-c3ccccc3Cl)c(=O)c3cnc(Nc4ccc(N5CCN(C)CC5)cc4)nc23)c1 [Example 51, 6-(2-chlorophenyl)-8-(3-methylphenyl)-2-{[4-(4-methylpiperazin-1-yl)phenyl]amino}pyrimido[4,5-d]pyridazin-5(6H)-one]
1	Cc1cccc(-c2nn(-c3ccccc3C)c(=O)c3cnc(Nc4ccc(N5CCN(C)CC5)cc4)nc23)c1 [Example 52, 6-(2-methylphenyl)-8-(3-methylphenyl)-2-{[4-(4-methylpiperazin-1-yl)phenyl]amino}pyrimido[4,5-d]pyridazin-5(6H)-one]
0.1	CN1Cc2cc(Nc3ncc4c(=O)n(-c5ccccc5Cl)nc(-c5ccccc5)c4n3)ccc2C2(CC2)C1 [Example 53, 6-(2-chlorophenyl)-2-[(2′-methyl-2′,3′-dihydro-1′H-spiro[cyclopropane-1,4′-isoquinolin]-7′-yl)amino]-8-phenylpyrimido[4,5-d]pyridazin-5(6H)-one]
2	CN1CCN(c2ccc(Nc3ncc4c(=O)n(-c5ccccc5Cl)nc(C5CCCC5)c4n3)cc2)CC1 [Example 55, 6-(2-chlorophenyl)-8-cyclopentyl-2-{[4-(4-methylpiperazin-1-yl)phenyl]amino}pyrimido[4,5-d]pyridazin-5(6H)-one]
63	CN1CCN(c2ccc(Nc3ncc4c(=O)n(-c5cccc(Cl)c5)nc(C5CCCC5)c4n3)cc2)CC1 [Example 56, 6-(3-chlorophenyl)-8-cyclopentyl-2-{[4-(4-methylpiperazin-1-yl)phenyl]amino}pyrimido[4,5-d]pyridazin-5(6H)-one]
7	COc1ccccc1-n1nc(C2CCCC2)c2nc(Nc3ccc(N4CCN(C)CC4)cc3)ncc2c1=O [Example 57, 8-cyclopentyl-6-(2-methoxyphenyl)-2-{[4-(4-methylpiperazin-1-yl)phenyl]amino}pyrimido[4,5-d]pyridazin-5(6H)-one]
2	COc1cccc(-c2nn(-c3ccccc3)c(=O)c3cnc(Nc4ccc(N5CCN(C)CC5)cc4)nc23)c1 [Example 58, 8-(3-methoxyphenyl)-2-{[4-(4-methylpiperazin-1-yl)phenyl]amino}-6-phenylpyrimido[4,5-d]pyridazin-5(6H)-one]
3	CN1CCN(c2ccc(Nc3ncc4c(=O)n(-c5ccccc5)nc(-c5ccc(-c6ncccn6)cc5)c4n3)cc2)CC1 [Example 59, 2-{[4-(4-methylpiperazin-1-yl)phenyl]amino}-6-phenyl-8-[4-(pyrimidin-2-yl)phenyl]pyrimido[4,5-d]pyridazin-5(6H)-one]
1	CN1CCN(c2ccc(Nc3ncc4c(=O)n(-c5ccccc5Cl)nc(-c5ccccn5)c4n3)cc2)CC1 [Example 60, 6-(2-chlorophenyl)-2-{[4-(4-methylpiperazin-1-yl)phenyl]amino}-8-(pyridin-2-yl)pyrimido[4,5-d]pyridazin-5(6H)-one]
< 1	CN1CCN(c2ccc(Nc3ncc4c(=O)n(-c5ccccc5Cl)nc(-c5ccc(-c6ncccn6)cc5)c4n3)cc2)CC1 [Example 61, 6-(2-chlorophenyl)-2-{[4-(4-methylpiperazin-1-yl)phenyl]amino}-8-[4-(pyrimidin-2-yl)phenyl]pyrimido[4,5-d]pyridazin-5(6H)-one]
11	C=CCn1nc(-c2ccc(-c3ncccn3)cc2)c2nc(Nc3ccc(N4CCN(C)CC4)cc3)ncc2c1=O [Example 62, 6-allyl-2-{[4-(4-methylpiperazin-1-yl)phenyl]amino}-8-[4-(pyrimidin-2-yl)phenyl]pyrimido[4,5-d]pyridazin-5(6H)-one]
5	C=CCn1nc(-c2cccc(OC)c2)c2nc(Nc3ccc(N4CCN(C)CC4)cc3)ncc2c1=O [Example 63, 6-allyl-8-(3-methoxyphenyl)-2-{[4-(4-methylpiperazin-1-yl)phenyl]amino}pyrimido[4,5-d]pyridazin-5(6H)-one]
0.3	Cc1ccccc1-n1nc(-c2ccc(-c3ncccn3)cc2)c2nc(Nc3ccc(N4CCN(C)CC4)cc3)ncc2c1=O [Example 64, 6-(2-methylphenyl)-2-{[4-(4-methylpiperazin-1-yl)phenyl]amino}-8-[4-(pyrimidin-2-yl)phenyl]pyrimido[4,5-d]pyridazin-5(6H)-one]
1	CN1CCN(c2ccc(Nc3ncc4c(=O)n(-c5ccccc5Cl)nc(-c5cccc(Br)c5)c4n3)cc2)CC1 [Example 65, 8-(3-bromophenyl)-6-(2-chlorophenyl)-2-{[4-(4-methylpiperazin-1-yl)phenyl]amino}pyrimido[4,5-d]pyridazin-5(6H)-one]
4	Cc1ccccc1-n1nc(-c2cccc(Br)c2)c2nc(Nc3ccc(N4CCN(C)CC4)cc3)ncc2c1=O [Example 66, 8-(3-bromophenyl)-6-(2-methylphenyl)-2-{[4-(4-methylpiperazin-1-yl)phenyl]amino}pyrimido[4,5-d]pyridazin-5(6H)-one]
14	CN1CCN(c2ccc(Nc3ncc4c(=O)n(-c5ccccc5)nc(-c5cccc(Br)c5)c4n3)cc2)CC1 [Example 67, 8-(3-bromophenyl)-2-{[4-(4-methylpiperazin-1-yl)phenyl]amino}-6-phenylpyrimido[4,5-d]pyridazin-5(6H)-one]
14	C=CCn1nc(-c2cccc(Br)c2)c2nc(Nc3ccc(N4CCN(C)CC4)cc3)ncc2c1=O [Example 68, 6-allyl-8-(3-bromophenyl)-2-{[4-(4-methylpiperazin-1-yl)phenyl]amino}pyrimido[4,5-d]pyridazin-5(6H)-one]
0.06	CN1CCN(c2ccc(Nc3ncc4c(=O)n(-c5c(Cl)cccc5Cl)nc(-c5ccco5)c4n3)cc2)CC1 [Example 69, 6-(2,6-dichlorophenyl)-8-(2-furyl)-2-{[4-(4-methylpiperazin-1-yl)phenyl]amino}pyrimido[4,5-d]pyridazin-5(6H)-one]
